Test results reported in US20220324835A1 (Nurix Therapeutics, Inc., priority 2018, published 2022).

Tests used:
Type in all cases: cell-based
[1] = test system: human T-cells with allogenic immature dendritic cells; experiment: Allogenic mixed lymphocyte reaction (MLR), T-cell proliferation; settings: 120 h, 5 days, baseline T-cells without Cbl-b inhibitor, read-out: Proliferation, fold change over baseline
Outline: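 CFSE-labelled primary human T-cells, preincubated with Cbl-b inhibitor, stimulated by allogenic immature dendritic cells derived from monocytes with GM-CSF (30 ng/mL) and IL-4 (20 ng/mL) over 7 days. Proliferation by flow cytometry, expressed as fold over inhibitor-free baseline; >2-fold counted positive.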

anergic human T-cells = experiment: Anergic T-cell activation assessed by IFNγ secretion (ionomycin-induced anergy); settings: anergic T-cells re-challenged with anti-CD3 and anti-CD28 for 24 hours, read-out: IFNγ Fold change from baseline
Outline: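 Human primary T-cells (>95% CD3+) were activated with anti-CD3/anti-CD28 for 2 days, rested 3 days, then made anergic with ionomycin for 18-24 h. Compound (e.g. 10, 1.11, 0.37 μM) was added for 1 h before 24 h anti-CD3/CD28 re-challenge; IFNγ by ELISA or Luminex as fold over untreated anergic baseline, binned A ≤2.50, B 2.51-4.00, C >4.01.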

primary human B cells = experiment: B cell activation assay (CD69 on anti-IgM stimulated B cells); settings: AUC of dose response curve (10 μM to 1 nM) of CD69 MFI normalized to DMSO control
Outline: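 Negatively selected PBMC-derived B cells (>95% CD20+) treated with Cbl-b inhibitors from 10 μM to 1 nM (DMSO <0.5%) and stimulated with anti-IgM for 20 h at 37° C. CD69 MFI on CD20+ IgD+ cells by flow cytometry; dose-response AUC normalized to DMSO plus 2.5 μg/mL anti-IgM-F(ab′)2, binned A-D.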

T-cell [2] = experiment: IL-2 secretion from T-cells stimulated with anti-CD3 antibody alone (Biological Example 2); settings: primary human total T-cells, read-out: IL-2 secretion, Anti-CD3 stimulation, fold change over baseline; for fold induction at 1 µM: 1 μM compound; for fold induction at 8 µM: 8 μM compound
T-cell [3] = experiment: CD25 cell surface staining on T-cells stimulated with anti-CD3 antibody alone (Biological Example 2); settings: primary human total T-cells, baseline = anti-CD3/anti-CD28 stimulated cells without inhibitor, read-out: CD25 staining, Anti-CD3 stimulation, fold change over baseline; for fold induction at 1 µM: 1 μM compound; for fold induction at 8 µM: 8 μM compound

SMILES | fold induction at 3 µM [1] | fold induction at 10 µM [1] | fold induction at 0.37 µM (anergic human T-cells) | fold induction at 1.11 µM (anergic human T-cells) | fold induction at 10 µM (anergic human T-cells) | CD69 MFI AUC (primary human B cells) | fold induction at 1 µM (T-cell [2]) | fold induction at 8 µM (T-cell [2]) | fold induction at 1 µM (T-cell [3]) | fold induction at 8 µM (T-cell [3])
C[C@H](Cc1nncn1C)c1cccc(N2Cc3c(ccnc3C3CC3)C2=O)c1 [Compound 257, 4-cyclopropyl-2-[3-[(1R)-1-methyl-2-(4-methyl-1,2,4-triazol-3-yl)ethyl]phenyl]-3H-pyrrolo[3,4-c]pyridin-1-one] | < 2 | < 2 | ≤ 2.5 | ≤ 2.5 | 2.51 to 4 | B (B indicates 0.5-1.00) |  |  |  | 
CNCc1ccc(C(=O)Nc2cccc([C@H](C)Cc3nncn3C)c2)nc1C1CC1 [Compound 376, (R)-6-cyclopropyl-N-(3-(1-(4-methyl-4H-1,2,4-triazol-3-yl)propan-2-yl)phenyl)-5-((methylamino)methyl)picolinamide] | < 2 | < 2 | ≤ 2.5 | ≤ 2.5 | > 4.01 | B (B indicates 0.5-1.00) | 0.101 to 0.15 | > 0.201 | 0.801 to 1 | > 1
Cn1cnnc1[C@@H]1C[C@@H]1c1cccc(N2Cc3c(cccc3C(F)(F)F)C2=O)c1 [Compound 282, 2-(3-((1S,2R)-2-(4-methyl-4H-1,2,4-triazol-3-yl)cyclopropyl)phenyl)-4-(trifluoromethyl)isoindolin-1-one] | < 2 | < 2 | ≤ 2.5 | ≤ 2.5 | ≤ 2.5 | B (B indicates 0.5-1.00) |  |  |  | 
C[C@H](Sc1nncn1C)c1cccc(NC(=O)c2cc(C(=O)N3CC[C@H](O)C3)ccn2)c1 [Compound 140, 4-[[(3S)-3-hydroxypyrrolidin-1-yl]carbonyl]-N-[3-[(1S)-1-[(4-methyl-4H-1,2,4-triazol-3-yl)sulfanyl]ethyl]phenyl]pyridine-2-carboxamide] | < 2 | < 2 | ≤ 2.5 | ≤ 2.5 | 2.51 to 4 | A (A indicates ≤0.5) |  |  |  | 
C[C@H](Cc1nncn1C)c1cccc(NC(=O)c2nc(C(F)(F)F)c[nH]2)c1 [Compound 326, (R)-N-(3-(1-(4-methyl-4H-1,2,4-triazol-3-yl)propan-2-yl)phenyl)-4-(trifluoromethyl)-1H-imidazole-2-carboxamide] | < 2 | < 2 | ≤ 2.5 | ≤ 2.5 | 2.51 to 4 | A (A indicates ≤0.5) |  |  |  | 
Cn1cnnc1[C@@H]1C[C@@H]1c1cccc(N2Cc3c(ccnc3C(F)(F)F)C2=O)c1 [Compound 369, 2-{3-[(1S,2R)-2-(4-methyl-4H-1,2,4-triazol-3-yl)cyclopropyl]phenyl}-4-(trifluoromethyl)-1H,2H,3H-pyrrolo[3,4-c]pyridin-1-one] | < 2 | < 2 | ≤ 2.5 | ≤ 2.5 | 2.51 to 4 | C (C indicates 1.01-1.50) | 0.051 to 0.1 | 0.101 to 0.15 | 0.601 to 0.8 | 0.801 to 1
C[C@H](Cc1nncn1C)c1ccnc(NC(=O)c2cccc(C(F)(F)F)n2)c1 [Compound 302, (R)-N-(4-(1-(4-methyl-4H-1,2,4-triazol-3-yl)propan-2-yl)pyridin-2-yl)-6-(trifluoromethyl)picolinamide] | < 2 | < 2 | ≤ 2.5 | ≤ 2.5 | ≤ 2.5 | B (B indicates 0.5-1.00) |  |  |  | 
Cc1cc2c(c(C3CC3)n1)CN(c1cccc([C@H](C)Cc3nncn3C)c1)C2=O [Compound 372, 4-cyclopropyl-6-methyl-2-{3-[(2R)-1-(4-methyl-4H-1,2,4-triazol-3-yl)propan-2-yl]phenyl}-1H,2H,3H-pyrrolo[3,4-c]pyridin-1-one] | < 2 | < 2 | ≤ 2.5 | ≤ 2.5 | 2.51 to 4 | A (A indicates ≤0.5) | 0.051 to 0.1 | 0.101 to 0.15 | 0.601 to 0.8 | 0.801 to 1
C[C@H](Cc1nncn1C)c1cccc(NC(=O)c2cccc(CCO)n2)c1 [Compound 202, 6-(2-hydroxyethyl)-N-[3-[(2R)-1-(4-methyl-4H-1,2,4-triazol-3-yl)propan-2-yl]phenyl]pyridine-2-carboxamide] | < 2 | < 2 | ≤ 2.5 | ≤ 2.5 | 2.51 to 4 | C (C indicates 1.01-1.50) |  |  |  | 
